Laboratory results as given in US20130177994A1, “METHODS FOR QU[…] DETERMINATION OF THE d- AND l- ENANTIOMERS OF AMPHETAMINE AND METHAMPHETAMINE” (CLINICAL REFERENCE LABORATORY, INC., priority 2012, published 2013).

Test: Donor sample analysis by chiral LC/MS/MS (oral fluid)
Assay type: in vivo
From the text: HPLC conditions were adapted from a separation method posted on the manufacturer's website (Sigma-Aldrich) using UV detection. A Supelco Astec Chirobiotic® V2 chiral column (5 μm particle size, 2.1×250 mm) from Sigma-Aldrich was used to achieve the chiral separation of the enantiomers for amphetamine and methamphetamine. The Chirobiotic® V2 column employs vancomycin as the chiral stationary phase to induce separation. The mobile phase consisted of 99.89:0.1:0.01 methanol:acetic acid:ammonium hydroxide (v/v/v) with a flow rate of 0.5 mL/min. The column temperature was 30° C. The HPLC employed was a Shimadzu Nexera UPLC system (Kyoto, Japan) operating at typical HPLC pressures. The injection volume for the method was 5 μL.
Detection was performed by an API 4000 triple-quadrupole mass spectrometer from AB Sciex (Foster City, Calif., USA). Column eluent was introduced into the mass spectrometer using the Turbolonspray® source operating in the positive ionization mode. Multiple-reaction monitoring (MRM) was used to analyze and detect each compound with a high degree of selectivity. The ionspray voltage was set at 5000V and the source temperature was 550° C. Parameters such as declustering potential (DP), collision energy (CE) and entrance and exit potentials (EP and CXP) were optimized for each analyte. The total analysis time for the method is 10 minutes.
Sample extraction was accomplished by aliquoting 200 μL of oral fluid sample into a 16×75 mm culture tube and adding 50 μL of internal standard (200 ng/mL racemic D11-amphetamine and […]). The sample was then treated with 25 μL of 10% sodium periodate solution and allowed to sit for 30 minutes after mixing. A 500 μL aliquot of 0.1 M phosphoric acid was added to each sample and mixed prior to transfer to the SPE wells.
The Agilent SPEC-DAU 96-well SPE plate was conditioned with 1 mL of methanol followed by 0.5 mL of 0.1 M phosphoric acid. Nitrogen gas was used to apply positive pressure for all SPE steps to induce a flow rate of about 1 to 2 mL per minute. […]
Several donor samples have been analyzed by this method. […]

Compound | % d-amphetamine in samples containing amphetamine (9 out of 25 donor samples, consistent with Adderall use) | % d-amphetamine in samples containing amphetamine (the remaining donor samples) | % d-methamphetamine in samples containing methamphetamine (all donor samples containing methamphetamine)
C[C@H](N)Cc1ccccc1 [d-Amphetamine, d-amphetamine] | approximately 70% | 100% | –
CN[C@@H](C)Cc1ccccc1 [d-Methamphetamine, d-methamphetamine] | – | – | > 90%
